US9340590B2 (priority 2011, dated 2016)
Read-outs that look alike come from different tables or passages of the source. Positions of bridges follow the written chain, without caps; N, C: chain ends. Non-standard residues stand in square brackets, D forms with d. Residues, ends and D or L forms follow the SMILES beside them. Bip = N[C@@H](Cc1ccc(-c2ccccc2)cc1)C(=O)O; Arg(Me2s) = CN=C(NC)NCCC[C@H](N)C(=O)O; Phe(4-I) = N[C@@H](Cc1ccc(I)cc1)C(=O)O; Lys(Me2) = CN(C)CCCC[C@H](N)C(=O)O; NMeF = CN[C@@H](Cc1ccccc1)C(=O)O; 2Pal = N[C@@H](Cc1ccccn1)C(=O)O; Phg = N[C@H](C(=O)O)c1ccccc1

Experiments:
Experiment in all cases: cell-based
hNav1.7 = hNav1.7 (Homo sapiens, UniProt Q15858); type: cell-based; settings: IonWorks Quattro, use, […], read-out: IWQ Use Nav1.7
hNav1.5 = hNav1.5 (Homo sapiens, UniProt Q14524); settings: IonWorks Quattro, use, […], read-out: IWQ Use Nav1.5
hNav1.5, sequence (Q14524 whole entry, looked up): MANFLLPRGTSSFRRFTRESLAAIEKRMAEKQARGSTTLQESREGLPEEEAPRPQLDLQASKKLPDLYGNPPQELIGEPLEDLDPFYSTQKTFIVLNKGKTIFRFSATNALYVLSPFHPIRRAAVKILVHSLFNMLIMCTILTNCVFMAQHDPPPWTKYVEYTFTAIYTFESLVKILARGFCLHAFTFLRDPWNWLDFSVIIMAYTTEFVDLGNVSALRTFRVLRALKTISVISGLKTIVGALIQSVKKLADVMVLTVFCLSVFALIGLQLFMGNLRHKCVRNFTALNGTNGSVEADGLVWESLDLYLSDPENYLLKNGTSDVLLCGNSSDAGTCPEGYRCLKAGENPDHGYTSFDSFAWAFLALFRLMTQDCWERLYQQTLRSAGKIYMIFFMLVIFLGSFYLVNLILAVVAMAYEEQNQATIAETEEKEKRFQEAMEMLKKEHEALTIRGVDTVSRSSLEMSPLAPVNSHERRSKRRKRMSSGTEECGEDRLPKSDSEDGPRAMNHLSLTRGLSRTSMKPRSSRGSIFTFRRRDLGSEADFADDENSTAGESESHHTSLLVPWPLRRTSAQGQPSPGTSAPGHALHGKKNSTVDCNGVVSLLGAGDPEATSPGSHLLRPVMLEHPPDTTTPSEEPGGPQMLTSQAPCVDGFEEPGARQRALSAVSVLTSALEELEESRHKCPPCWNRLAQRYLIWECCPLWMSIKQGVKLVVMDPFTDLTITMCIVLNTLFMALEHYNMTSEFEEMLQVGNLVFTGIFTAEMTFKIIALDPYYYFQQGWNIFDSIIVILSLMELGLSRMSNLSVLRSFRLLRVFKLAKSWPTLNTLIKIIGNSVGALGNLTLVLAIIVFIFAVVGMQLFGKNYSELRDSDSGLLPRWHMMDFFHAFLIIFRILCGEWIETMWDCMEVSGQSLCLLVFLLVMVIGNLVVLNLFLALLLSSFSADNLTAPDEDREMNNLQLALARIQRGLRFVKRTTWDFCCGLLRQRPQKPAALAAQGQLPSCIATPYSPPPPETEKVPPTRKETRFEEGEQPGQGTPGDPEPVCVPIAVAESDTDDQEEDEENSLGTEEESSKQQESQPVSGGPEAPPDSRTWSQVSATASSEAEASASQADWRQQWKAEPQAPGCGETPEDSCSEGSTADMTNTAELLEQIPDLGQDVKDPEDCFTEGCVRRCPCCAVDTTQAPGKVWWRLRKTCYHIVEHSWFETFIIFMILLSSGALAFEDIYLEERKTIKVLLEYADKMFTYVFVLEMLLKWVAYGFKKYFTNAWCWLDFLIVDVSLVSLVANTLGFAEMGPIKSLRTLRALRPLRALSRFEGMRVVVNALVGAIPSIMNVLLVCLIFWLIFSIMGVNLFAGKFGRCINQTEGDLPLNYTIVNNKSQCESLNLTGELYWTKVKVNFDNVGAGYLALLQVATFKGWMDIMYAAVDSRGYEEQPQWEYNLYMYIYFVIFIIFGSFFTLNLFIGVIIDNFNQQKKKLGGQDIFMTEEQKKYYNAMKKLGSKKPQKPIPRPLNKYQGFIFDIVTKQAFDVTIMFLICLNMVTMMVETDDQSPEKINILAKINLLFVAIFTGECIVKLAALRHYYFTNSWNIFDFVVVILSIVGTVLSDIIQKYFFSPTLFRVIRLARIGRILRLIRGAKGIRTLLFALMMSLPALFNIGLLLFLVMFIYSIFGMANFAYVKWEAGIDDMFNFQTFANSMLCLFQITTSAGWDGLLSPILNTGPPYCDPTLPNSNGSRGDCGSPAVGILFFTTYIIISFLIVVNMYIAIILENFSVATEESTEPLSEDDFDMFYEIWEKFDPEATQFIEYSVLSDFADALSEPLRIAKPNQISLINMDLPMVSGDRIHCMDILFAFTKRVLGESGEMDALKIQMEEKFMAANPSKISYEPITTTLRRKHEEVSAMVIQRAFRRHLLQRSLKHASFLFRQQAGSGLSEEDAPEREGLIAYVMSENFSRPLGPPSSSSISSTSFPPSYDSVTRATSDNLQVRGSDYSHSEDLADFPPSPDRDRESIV

hNav1.3 = hNav1.3 (Homo sapiens, UniProt Q9NY46); settings: IonWorks Quattro, use, […], read-out: IWQ Use Nav1.3
hNav1.3, sequence (Q9NY46 whole entry, looked up): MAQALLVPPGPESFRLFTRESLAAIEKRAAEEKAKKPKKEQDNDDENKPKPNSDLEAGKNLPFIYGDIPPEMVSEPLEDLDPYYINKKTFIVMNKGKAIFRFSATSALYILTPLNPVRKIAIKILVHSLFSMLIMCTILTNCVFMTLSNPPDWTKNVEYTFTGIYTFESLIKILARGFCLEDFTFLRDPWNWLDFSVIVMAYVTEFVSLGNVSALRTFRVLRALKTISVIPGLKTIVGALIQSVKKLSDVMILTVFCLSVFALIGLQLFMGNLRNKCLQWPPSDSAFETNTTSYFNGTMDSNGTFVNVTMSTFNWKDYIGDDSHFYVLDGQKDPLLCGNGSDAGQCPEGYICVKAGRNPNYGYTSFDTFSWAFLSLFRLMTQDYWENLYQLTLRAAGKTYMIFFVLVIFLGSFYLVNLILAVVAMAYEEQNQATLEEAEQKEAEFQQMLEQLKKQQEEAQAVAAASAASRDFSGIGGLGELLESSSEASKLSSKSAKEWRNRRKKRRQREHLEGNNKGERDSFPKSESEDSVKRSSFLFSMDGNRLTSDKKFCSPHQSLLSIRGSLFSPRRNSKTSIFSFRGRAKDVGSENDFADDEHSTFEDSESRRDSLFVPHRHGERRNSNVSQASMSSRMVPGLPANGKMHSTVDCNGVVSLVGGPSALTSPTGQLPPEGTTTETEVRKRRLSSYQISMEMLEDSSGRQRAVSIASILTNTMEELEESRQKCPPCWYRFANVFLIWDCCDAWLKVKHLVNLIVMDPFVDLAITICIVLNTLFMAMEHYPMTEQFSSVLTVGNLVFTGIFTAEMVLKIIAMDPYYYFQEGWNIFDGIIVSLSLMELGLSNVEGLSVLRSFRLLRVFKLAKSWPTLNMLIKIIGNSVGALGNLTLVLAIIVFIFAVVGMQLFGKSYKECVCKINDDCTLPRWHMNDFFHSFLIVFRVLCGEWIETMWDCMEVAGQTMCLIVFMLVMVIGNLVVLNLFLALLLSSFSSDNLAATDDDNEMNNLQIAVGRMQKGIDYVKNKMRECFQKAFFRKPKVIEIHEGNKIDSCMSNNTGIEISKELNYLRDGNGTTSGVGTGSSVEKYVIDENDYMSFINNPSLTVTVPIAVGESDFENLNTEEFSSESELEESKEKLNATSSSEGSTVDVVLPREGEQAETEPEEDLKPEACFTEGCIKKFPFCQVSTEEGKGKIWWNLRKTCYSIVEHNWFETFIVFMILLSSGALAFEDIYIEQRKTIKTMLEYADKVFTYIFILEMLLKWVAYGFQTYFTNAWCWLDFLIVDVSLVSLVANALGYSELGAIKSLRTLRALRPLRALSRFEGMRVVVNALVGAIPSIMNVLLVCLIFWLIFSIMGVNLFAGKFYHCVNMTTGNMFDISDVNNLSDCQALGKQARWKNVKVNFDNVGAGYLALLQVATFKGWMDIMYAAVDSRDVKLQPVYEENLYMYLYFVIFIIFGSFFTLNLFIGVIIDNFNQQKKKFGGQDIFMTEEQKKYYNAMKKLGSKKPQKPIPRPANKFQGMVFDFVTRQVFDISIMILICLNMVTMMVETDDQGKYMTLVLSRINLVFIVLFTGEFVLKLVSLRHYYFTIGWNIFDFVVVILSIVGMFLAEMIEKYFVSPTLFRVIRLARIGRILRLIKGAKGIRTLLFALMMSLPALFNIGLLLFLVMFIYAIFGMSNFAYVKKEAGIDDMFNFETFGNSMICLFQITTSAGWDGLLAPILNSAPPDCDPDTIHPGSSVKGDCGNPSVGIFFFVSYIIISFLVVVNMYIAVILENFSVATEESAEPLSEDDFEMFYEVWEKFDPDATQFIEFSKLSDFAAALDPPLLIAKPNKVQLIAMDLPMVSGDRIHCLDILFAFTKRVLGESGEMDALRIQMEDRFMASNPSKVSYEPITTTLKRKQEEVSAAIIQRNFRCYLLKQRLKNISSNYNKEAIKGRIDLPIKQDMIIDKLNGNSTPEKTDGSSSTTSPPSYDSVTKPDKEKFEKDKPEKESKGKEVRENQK

Structure (SMILES) | IC50 (hNav1.7; Table 23) [µM] | IC50 (hNav1.5; Table 23) [µM] | IC50 (hNav1.3; Table 23) [µM] | IC50 (hNav1.7; Table 24) [µM] | IC50 (hNav1.5; Table 24) [µM] | IC50 (hNav1.3; Table 24) [µM]
CC[C@H](C)[C@@H]1NC(=O)[C@@H]2CSSC[C@@H]3NC(=O)[C@H](C(C)C)NC(=O)[C@H](CC(C)C)NC(=O)[C@H](CC(N)=O)NC(=O)[C@@H]4CCCN4C(=O)[C@H](CCCNC(=N)N)NC(=O)[C@H](CSSC[C@H](NC(=O)[C@@H](N)CC(=O)O)C(=O)N[C@@H](CC(C)C)C(=O)NCC(=O)N[C@@H](Cc4ccccc4)C(=O)N[C@@H](CCSC)C(=O)N[C@@H](CCCNC(=N)N)C(=O)N[C@@H](CCCCN)C(=O)N2)NC(=O)[C@H](CSSC[C@@H](C(=O)N[C@@H](CCCCN)C(=O)N[C@@H](Cc2ccc(O)cc2)C(=O)N[C@H](C(=O)N[C@@H](Cc2ccccc2)C(N)=O)C(C)C)NC(=O)[C@H](Cc2c[nH]c4ccccc24)NC(=O)[C@H](CCCCN)NC(=O)[C@H](Cc2ccccn2)NC(=O)[C@H]([C@@H](C)O)NC(=O)[C@H](CCCNC(=N)N)NC(=O)[C@H](CO)NC3=O)NC(=O)[C@H](CCCCN)NC(=O)[C@H](CC(=O)O)NC(=O)[C@H](CC(N)=O)NC(=O)[C@H](CC(=O)O)NC(=O)[C@@H]2CCCN2C1=O [compound 352] (H-DCLGFMRKCIPDNDKCCRPNLVCSRT[2Pal]KWCKYVF-NH2; disulfide 2-17, 9-23, 16-30) | 0.09 | 7.82 | 0.05 |  |  | 
CC[C@H](C)[C@@H]1NC(=O)[C@@H]2CSSC[C@@H]3NC(=O)[C@H](C(C)C)NC(=O)[C@H](CC(C)C)NC(=O)[C@H](CC(N)=O)NC(=O)[C@@H]4CCCN4C(=O)[C@H](CCCNC(=N)N)NC(=O)[C@H](CSSC[C@H](NC(=O)[C@@H](N)CC(=O)O)C(=O)N[C@@H](CC(C)C)C(=O)NCC(=O)N[C@@H](Cc4ccccc4)C(=O)N[C@@H](CCSC)C(=O)N[C@@H](CCCNC(=N)N)C(=O)N[C@@H](CCCCN)C(=O)N2)NC(=O)[C@H](CSSC[C@@H](C(=O)N[C@@H](CCCCN)C(=O)N[C@@H](Cc2ccc(O)cc2)C(=O)N[C@H](C(=O)N[C@@H](Cc2ccccc2)C(N)=O)C(C)C)NC(=O)[C@H](Cc2c[nH]c4ccccc24)NC(=O)[C@H](CCCCN)NC(=O)[C@H](CCCNC(=NC)NC)NC(=O)[C@H]([C@@H](C)O)NC(=O)[C@H](CCCNC(=N)N)NC(=O)[C@H](CO)NC3=O)NC(=O)[C@H](CCCCN)NC(=O)[C@H](CC(=O)O)NC(=O)[C@H](CC(N)=O)NC(=O)[C@H](CC(=O)O)NC(=O)[C@@H]2CCCN2C1=O [compound 353] (H-DCLGFMRKCIPDNDKCCRPNLVCSRT[Arg(Me2s)]KWCKYVF-NH2; disulfide 2-17, 9-23, 16-30) | 2 | 8.32 | 2.42 |  |  | 
CC[C@H](C)[C@@H]1NC(=O)[C@@H]2CSSC[C@@H]3NC(=O)[C@H](C(C)C)NC(=O)[C@H](CC(C)C)NC(=O)[C@H](CC(N)=O)NC(=O)[C@@H]4CCCN4C(=O)[C@H](CCCNC(=N)N)NC(=O)[C@H](CSSC[C@H](NC(=O)[C@@H](N)CC(=O)O)C(=O)N[C@@H](CC(C)C)C(=O)NCC(=O)N[C@@H](Cc4ccccc4)C(=O)N[C@@H](CCSC)C(=O)N[C@@H](CCCNC(=N)N)C(=O)N[C@@H](CCCCN)C(=O)N2)NC(=O)[C@H](CSSC[C@@H](C(=O)N[C@@H](CCCCN)C(=O)N[C@@H](Cc2ccc(O)cc2)C(=O)N[C@H](C(=O)N[C@@H](Cc2ccccc2)C(N)=O)C(C)C)NC(=O)[C@H](Cc2c[nH]c4ccccc24)NC(=O)[C@H](CCCCN)NC(=O)[C@H](CCCCN(C)C)NC(=O)[C@H]([C@@H](C)O)NC(=O)[C@H](CCCNC(=N)N)NC(=O)[C@H](CO)NC3=O)NC(=O)[C@H](CCCCN)NC(=O)[C@H](CC(=O)O)NC(=O)[C@H](CC(N)=O)NC(=O)[C@H](CC(=O)O)NC(=O)[C@@H]2CCCN2C1=O [compound 354] (H-DCLGFMRKCIPDNDKCCRPNLVCSRT[Lys(Me2)]KWCKYVF-NH2; disulfide 2-17, 9-23, 16-30) | 7 | 12.4 | 3.82 |  |  | 
CC[C@H](C)[C@@H]1NC(=O)[C@@H]2CSSC[C@@H]3NC(=O)[C@H](C(C)C)NC(=O)[C@H](CC(C)C)NC(=O)[C@H](CC(N)=O)NC(=O)[C@@H]4CCCN4C(=O)[C@H](CCCNC(=N)N)NC(=O)[C@H](CSSC[C@H](NC(=O)[C@@H](N)CC(=O)O)C(=O)N[C@@H](CC(C)C)C(=O)NCC(=O)N[C@@H](Cc4ccccc4)C(=O)N[C@@H](CCSC)C(=O)N[C@@H](CCCNC(=N)N)C(=O)N[C@@H](CCCCN)C(=O)N2)NC(=O)[C@H](CSSC[C@@H](C(=O)N[C@@H](CCCCN)C(=O)N[C@@H](Cc2ccc(O)cc2)C(=O)N[C@H](C(=O)N[C@@H](Cc2ccccc2)C(N)=O)C(C)C)NC(=O)[C@H](Cc2ccc(I)cc2)NC(=O)[C@H](CCCCN)NC(=O)[C@H](Cc2c[nH]cn2)NC(=O)[C@H]([C@@H](C)O)NC(=O)[C@H](CCCNC(=N)N)NC(=O)[C@H](CO)NC3=O)NC(=O)[C@H](CCCCN)NC(=O)[C@H](CC(=O)O)NC(=O)[C@H](CC(N)=O)NC(=O)[C@H](CC(=O)O)NC(=O)[C@@H]2CCCN2C1=O [compound 358] (H-DCLGFMRKCIPDNDKCCRPNLVCSRTHK[Phe(4-I)]CKYVF-NH2; disulfide 2-17, 9-23, 16-30) |  |  |  | 1.01 | 14.9 | 1.27
CC[C@H](C)[C@@H]1NC(=O)[C@@H]2CSSC[C@@H]3NC(=O)[C@H](C(C)C)NC(=O)[C@H](CC(C)C)NC(=O)[C@H](CC(N)=O)NC(=O)[C@@H]4CCCN4C(=O)[C@H](CCCNC(=N)N)NC(=O)[C@H](CSSC[C@H](NC(=O)[C@@H](N)CC(=O)O)C(=O)N[C@@H](CC(C)C)C(=O)NCC(=O)N[C@@H](Cc4ccccc4)C(=O)N[C@@H](CCSC)C(=O)N[C@@H](CCCNC(=N)N)C(=O)N[C@@H](CCCCN)C(=O)N2)NC(=O)[C@H](CSSC[C@@H](C(=O)N[C@@H](CCCCN)C(=O)N[C@@H](Cc2ccc(O)cc2)C(=O)N[C@H](C(=O)N[C@@H](Cc2ccccc2)C(N)=O)C(C)C)NC(=O)[C@H](Cc2ccccc2)N(C)C(=O)[C@H](CCCCN)NC(=O)[C@H](Cc2c[nH]cn2)NC(=O)[C@H]([C@@H](C)O)NC(=O)[C@H](CCCNC(=N)N)NC(=O)[C@H](CO)NC3=O)NC(=O)[C@H](CCCCN)NC(=O)[C@H](CC(=O)O)NC(=O)[C@H](CC(N)=O)NC(=O)[C@H](CC(=O)O)NC(=O)[C@@H]2CCCN2C1=O [compound 359] (H-DCLGFMRKCIPDNDKCCRPNLVCSRTHK[NMeF]CKYVF-NH2; disulfide 2-17, 9-23, 16-30) |  |  |  | 19.2 | 18.8 | 7.39
CC[C@H](C)[C@@H]1NC(=O)[C@@H]2CSSC[C@@H]3NC(=O)[C@H](C(C)C)NC(=O)[C@H](CC(C)C)NC(=O)[C@H](CC(N)=O)NC(=O)[C@@H]4CCCN4C(=O)[C@H](CCCNC(=N)N)NC(=O)[C@H](CSSC[C@H](NC(=O)[C@@H](N)CC(=O)O)C(=O)N[C@@H](CC(C)C)C(=O)NCC(=O)N[C@@H](Cc4ccccc4)C(=O)N[C@@H](CCSC)C(=O)N[C@@H](CCCNC(=N)N)C(=O)N[C@@H](CCCCN)C(=O)N2)NC(=O)[C@H](CSSC[C@@H](C(=O)N[C@@H](CCCCN)C(=O)N[C@@H](Cc2ccc(O)cc2)C(=O)N[C@H](C(=O)N[C@@H](Cc2ccccc2)C(N)=O)C(C)C)NC(=O)[C@H](Cc2ccc(-c4ccccc4)cc2)NC(=O)[C@H](CCCCN)NC(=O)[C@H](Cc2c[nH]cn2)NC(=O)[C@H]([C@@H](C)O)NC(=O)[C@H](CCCNC(=N)N)NC(=O)[C@H](CO)NC3=O)NC(=O)[C@H](CCCCN)NC(=O)[C@H](CC(=O)O)NC(=O)[C@H](CC(N)=O)NC(=O)[C@H](CC(=O)O)NC(=O)[C@@H]2CCCN2C1=O [compound 360] (H-DCLGFMRKCIPDNDKCCRPNLVCSRTHK[Bip]CKYVF-NH2; disulfide 2-17, 9-23, 16-30) |  |  |  | 4.79 | 9.77 | 6.95
CC[C@H](C)[C@@H]1NC(=O)[C@@H]2CSSC[C@@H]3NC(=O)[C@H](C(C)C)NC(=O)[C@H](CC(C)C)NC(=O)[C@H](CC(N)=O)NC(=O)[C@@H]4CCCN4C(=O)[C@H](CCCNC(=N)N)NC(=O)[C@H](CSSC[C@H](NC(=O)[C@@H](N)CC(=O)O)C(=O)N[C@@H](CC(C)C)C(=O)NCC(=O)N[C@@H](Cc4ccccc4)C(=O)N[C@@H](CCSC)C(=O)N[C@@H](CCCNC(=N)N)C(=O)N[C@@H](CCCCN)C(=O)N2)NC(=O)[C@H](CSSC[C@@H](C(=O)N[C@@H](CCCCN)C(=O)N[C@@H](Cc2ccc(O)cc2)C(=O)N[C@H](C(=O)N[C@@H](Cc2ccccc2)C(N)=O)C(C)C)NC(=O)[C@H](Cc2cn(C)c4ccccc24)NC(=O)[C@H](CCCCN)NC(=O)[C@H](Cc2c[nH]cn2)NC(=O)[C@H]([C@@H](C)O)NC(=O)[C@H](CCCNC(=N)N)NC(=O)[C@H](CO)NC3=O)NC(=O)[C@H](CCCCN)NC(=O)[C@H](CC(=O)O)NC(=O)[C@H](CC(N)=O)NC(=O)[C@H](CC(=O)O)NC(=O)[C@@H]2CCCN2C1=O [compound 361] |  |  |  | 3.89 | 12.2 | 4.58
CC[C@H](C)[C@@H]1NC(=O)[C@@H]2CSSC[C@@H]3NC(=O)[C@H](C(C)C)NC(=O)[C@H](CC(C)C)NC(=O)[C@H](CC(N)=O)NC(=O)[C@@H]4CCCN4C(=O)[C@H](CCCNC(=N)N)NC(=O)[C@H](CSSC[C@H](NC(=O)[C@@H](N)CC(=O)O)C(=O)N[C@@H](CC(C)C)C(=O)NCC(=O)N[C@@H](Cc4ccccc4)C(=O)N[C@@H](CCSC)C(=O)N[C@@H](CCCNC(=N)N)C(=O)N[C@@H](CCCCN)C(=O)N2)NC(=O)[C@H](CSSC[C@@H](C(=O)N[C@@H](CCCCN)C(=O)N[C@@H](Cc2ccc(O)cc2)C(=O)N[C@H](C(=O)N[C@@H](Cc2ccccc2)C(N)=O)C(C)C)NC(=O)[C@H](c2ccccc2)NC(=O)[C@H](CCCCN)NC(=O)[C@H](Cc2c[nH]cn2)NC(=O)[C@H]([C@@H](C)O)NC(=O)[C@H](CCCNC(=N)N)NC(=O)[C@H](CO)NC3=O)NC(=O)[C@H](CCCCN)NC(=O)[C@H](CC(=O)O)NC(=O)[C@H](CC(N)=O)NC(=O)[C@H](CC(=O)O)NC(=O)[C@@H]2CCCN2C1=O [compound 362] (H-DCLGFMRKCIPDNDKCCRPNLVCSRTHK[Phg]CKYVF-NH2; disulfide 2-17, 9-23, 16-30) |  |  |  | 5.52 | 7.85 | 3.18
